# Measurements taken from US20220211796A1, “PEPTIDE ANTIBIOTICS AND METHODS OF USE THEREOF” (priority 2019, published 2022).
# Numbered stars: 1 amine (or outer) side, 2 acyl side, 3 side chain; on linkers, the order of the positions; unused ones are H or OH. Bridge positions count the residues as written; N and C are the ends. Square brackets hold non-standard residues; d marks the D form. Peptide text beside a SMILES is read from it. TBMB = c1c(C[*:1])cc(C[*:3])cc1C[*:2]
# Tests used:
# Experiment in all cases: microbe, parasite or virus in culture
# E. coli ATCC 25992 = test system: E. coli ATCC 25992
# Description: (§1) The L-peptides identified from five different phage display libraries were catalogued as described previously and selected sequences were synthesized in D-enantiomeric form by SPPS for further investigation in several biological assays.
# (§2) MICs were determined according to a 96-well microdilution protocol outlined by the Clinical and Laboratory Standard Institute (CLSI) guideline with modifications for peptide antibiotics reported by Wiegand et al.^35 Two-fold serial peptide dilutions were performed to go from 2560 μg/ml to 5 μg/ml in0.2% BSA and 0.01% acetic acid buffer in 96-well polypropylene plates (COSTAR, #3879). Dilution of bacterial suspensions (1:200) of different bacterial strains that were grown until 0.5 McFarland standard were prepared to obtain a final inoculum concentration of 8×10^5 CFU/ml in Mueller-Hinton broth.
# [1] = test system: Methicillin-resistant S. aureus (MRSA) ATCC 43300
# Description: as §1, §2
# S. aureus ATCC 6538 = test system: S. aureus ATCC 6538
# Description: as §1, §2
# [2] = test system: low level vancomycin resistant E. faecium (vanB) ATCC 51299
# Description: as §1, §2
# B. subtilis ATCC 6633 = test system: B. subtilis ATCC 6633
# Description: as §1, §2
# [3] = test system: high level vancomycin resistant E. faecium (vanA) ATCC 51559
# Description: as §1, §2
# E. faecalis ATCC 29121 = test system: E. faecalis ATCC 29121
# Description: as §1, §2
# [4] = Table 5, low level vancomycin resistant E. faecium ATCC 51299
# [5] = Table 6, low level vancomycin resistant E. faecium ATCC51299
# [6] = Table 6, high level vancomycin resistant E. faecium ATCC51559
Compound,MIC E. coli (E. coli ATCC 25992; ATCC 25992),MIC MRSA ([1]; ATCC 43300),MIC S. aureus (S. aureus ATCC 6538; ATCC 6538),"MIC VRE (vanB) [2, 4]",MIC B. subtilis (B. subtilis ATCC 6633; ATCC 6633),MIC VRE (vanA) ([3]; ATCC 51559),MIC E. faecalis (E. faecalis ATCC 29121; ATCC 29121),other results
"CC[C@@H](C)[C@H]1NC(=O)[C@@H](CC(N)=O)NC(=O)[C@@H](CC(=O)O)NC(=O)[C@H](N)CSSC[C@H](C(N)=O)NC(=O)[C@@H](C(C)C)NC(=O)[C@H]2CCCN2C(=O)[C@@H]([C@H](C)O)NC(=O)[C@@H](CCSC)NC1=O [P13, CDNIMTPVC] (H-[dC][dD][dN][dI][dM][dT][dP][dV][dC]-NH2; disulfide 1-9)",>256 µg/mL,64 µg/mL,64 µg/mL,>256 µg/mL,64 µg/mL,>256 µg/mL,128 µg/mL,
"CC(C)C[C@H]1NC(=O)[C@H](N)CSSC[C@H](C(N)=O)NC(=O)[C@@H]([C@H](C)O)NC(=O)[C@@H](C)NC(=O)CNC(=O)[C@@H]([C@H](C)O)NC(=O)[C@@H](CO)NC(=O)[C@@H](Cc2c[nH]c3ccccc23)NC1=O [P12, CLWSTGATC] (H-[dC][dL][dW][dS][dT]G[dA][dT][dC]-NH2; disulfide 1-9)",>256 µg/mL,64 µg/mL,64 µg/mL,>256 µg/mL,64 µg/mL,>256 µg/mL,128 µg/mL,
"CSCC[C@H]1NC(=O)[C@H]2CCCN2C(=O)[C@@H]([C@H](C)O)NC(=O)[C@@H](C)NC(=O)CNC(=O)[C@@H](CCCNC(=N)N)NC(=O)[C@H](N)CSSC[C@H](C(N)=O)NC(=O)[C@@H](CO)NC1=O [P10, CRGATPMSC] (H-[dC][dR]G[dA][dT][dP][dM][dS][dC]-NH2; disulfide 1-9)",,,,>256 µg/mL,,,,"MIC E. coli (E. coli ATCC 25992; Table 5, E. coli ATCC 25992): >256 µg/mL; MIC MRSA ([1]; Table 5, MRSA ATCC 43300): 128 µg/mL; MIC S. aureus (S. aureus ATCC 6538; Table 5, S. aureus ATCC 6538): 128 µg/mL; MIC B. subtilis (B. subtilis ATCC 6633; Table 5, B. subtilis ATCC 6633): 128 µg/mL; MIC VRE (vanA) ([3]; Table 5, high level vancomycin resistant E. faecium ATCC 51559): >256 µg/mL; MIC E. faecalis (E. faecalis ATCC 29121; Table 5, E. faecalis ATCC 29121): 256 µg/mL"
"CC[C@@H](C)[C@H]1NC(=O)[C@@H](CO)NC(=O)[C@H](N)CSSC[C@H](C(N)=O)NC(=O)[C@@H](Cc2c[nH]cn2)NC(=O)[C@@H]([C@H](C)O)NC(=O)[C@@H](CC(C)C)NC(=O)[C@@H](CO)NC(=O)[C@@H](CO)NC1=O [P11, CSISSLTHC] (H-[dC][dS][dI][dS][dS][dL][dT][dH][dC]-NH2; disulfide 1-9)",>256 µg/mL,64 µg/mL,32 µg/mL,64 µg/mL,32 µg/mL,>256 µg/mL,32 µg/mL,
"CC(C)C[C@H]1NC(=O)[C@H](N)CSSC[C@H](C(N)=O)NC(=O)[C@@H](Cc2c[nH]c3ccccc23)NC(=O)[C@@H](CCCCN)NC(=O)[C@@H](CCC(=O)O)NC(=O)CNC(=O)[C@@H](CC(C)C)NC(=O)[C@@H](CCCCN)NC1=O [P9, CLKLGEKWC] (H-[dC][dL][dK][dL]G[dE][dK][dW][dC]-NH2; disulfide 1-9)",>256 µg/mL,64 µg/mL,64 µg/mL,>256 µg/mL,32 µg/mL,>256 µg/mL,64 µg/mL,
"CC(C)[C@@H](N)C(=O)N[C@H](Cc1c[nH]cn1)C(=O)N[C@H](Cc1c[nH]c2ccccc12)C(=O)N[C@H](CC(=O)O)C(=O)N[C@H](Cc1ccccc1)C(=O)N[C@H](CCCNC(=N)N)C(=O)N[C@H](CCC(N)=O)C(=O)N[C@H](Cc1c[nH]c2ccccc12)C(=O)N[C@H](Cc1c[nH]c2ccccc12)C(=O)N[C@H](CCC(N)=O)C(=O)N1CCC[C@@H]1C(=O)N[C@H](CO)C(N)=O [P4, VHWDFRQWWQPS] (H-[dV][dH][dW][dD][dF][dR][dQ][dW][dW][dQ][dP][dS]-NH2)",>256 µg/mL,64 µg/mL,32 µg/mL,128 µg/mL,32 µg/mL,>256 µg/mL,32 µg/mL,
"CC(C)C[C@H]1NC(=O)[C@@H](CCC(N)=O)NC(=O)[C@@H](CO)NC(=O)[C@@H](CO)NC(=O)[C@@H](CO)NC(=O)[C@H]2CSCc3cc(cc(c3)CSC[C@H](C(N)=O)NC(=O)[C@@H](Cc3ccc(O)cc3)NC1=O)CSC[C@@H](N)C(=O)N[C@H]([C@H](C)O)C(=O)N[C@H](CCCNC(=N)N)C(=O)N[C@H](C(C)C)C(=O)N2 [P19, CTRVCSSSQLYC] (H-[dC][dT][dR][dV][dC][dS][dS][dS][dQ][dL][dY][dC]-NH2; linker 1-5-12 via TBMB)",,,,,,,,"MIC E. coli (E. coli ATCC 25992; Table 6, E. Coli ATCC25992): >256 µg/mL; MIC MRSA ([1]; Table 6, MRSA ATCC43300): >256 µg/mL; MIC S. aureus (S. aureus ATCC 6538; Table 6, S. aureus ATCC6538): 128 µg/mL; MIC VRE (vanB) [2, 5]: >256 µg/mL; MIC B. subtilis (B. subtilis ATCC 6633; Table 6, B. subtilis ATCC6633): 128 µg/mL; MIC VRE (vanA) [3, 6]: >256 µg/mL; MIC E. faecalis (E. faecalis ATCC 29121; Table 6, E. faecalis ATCC29121): >256 µg/mL"
"CSCC[C@H]1NC(=O)[C@@H](CC(=O)O)NC(=O)[C@H]2CSCc3cc(cc(c3)CSC[C@H](C(N)=O)NC(=O)[C@@H](Cc3c[nH]cn3)NC(=O)[C@@H](CC(C)C)NC1=O)CSC[C@@H](N)C(=O)N[C@H](CCC(N)=O)C(=O)N[C@H](Cc1ccc(O)cc1)C(=O)N[C@H](CC(N)=O)C(=O)N[C@H](CC(=O)O)C(=O)N2 [P16, COYNDCDMLHC] (H-[dC][dQ][dY][dN][dD][dC][dD][dM][dL][dH][dC]-NH2; linker 1-6-11 via TBMB)",,,,,,,,"MIC E. coli (E. coli ATCC 25992; Table 6, E. Coli ATCC25992): >256 µg/mL; MIC MRSA ([1]; Table 6, MRSA ATCC43300): 128 µg/mL; MIC S. aureus (S. aureus ATCC 6538; Table 6, S. aureus ATCC6538): 64 µg/mL; MIC VRE (vanB) [2, 5]: >256 µg/mL; MIC B. subtilis (B. subtilis ATCC 6633; Table 6, B. subtilis ATCC6633): 64 µg/mL; MIC VRE (vanA) [3, 6]: >256 µg/mL; MIC E. faecalis (E. faecalis ATCC 29121; Table 6, E. faecalis ATCC29121): 128 µg/mL"

# More lines, main results first:
MIC E. coli (E. coli ATCC 25992; ATCC 25992),MIC MRSA ([1]; ATCC 43300),MIC S. aureus (S. aureus ATCC 6538; ATCC 6538),"MIC VRE (vanB) [2, 4]",MIC B. subtilis (B. subtilis ATCC 6633; ATCC 6633),MIC VRE (vanA) ([3]; ATCC 51559),MIC E. faecalis (E. faecalis ATCC 29121; ATCC 29121),Compound,other results
>256 µg/mL,>256 µg/mL,128 µg/mL,>256 µg/mL,128 µg/mL,>256 µg/mL,>256 µg/mL,"CC(C)C[C@@H](NC(=O)[C@H](NC(=O)[C@@H](Cc1ccc(O)cc1)NC(=O)[C@@H](CS)NC(=O)[C@@H](CS)NC(=O)[C@H](N)CCCCN)[C@H](C)O)C(=O)N1CCC[C@@H]1C(N)=O [P5, KCCYTLP] (H-[dK][dC][dC][dY][dT][dL][dP]-NH2)",
>256 µg/mL,64 µg/mL,,>256 µg/mL,32 µg/mL,>256 µg/mL,64 µg/mL,"CC[C@@H](C)[C@@H](NC(=O)[C@@H](Cc1ccc(O)cc1)NC(=O)[C@H](N)Cc1c[nH]cn1)C(=O)N[C@H](CC(=O)O)C(=O)N[C@H](Cc1ccccc1)C(=O)N[C@H](CCCNC(=N)N)C(=O)N[C@H](Cc1c[nH]c2ccccc12)C(N)=O [P8, HYIDFRW] (H-[dH][dY][dI][dD][dF][dR][dW]-NH2)",
>256 µg/mL,>256 µg/mL,64 µg/mL,>256 µg/mL,32 µg/mL,>256 µg/mL,>256 µg/mL,"CC(C)C[C@@H](NC(=O)[C@@H](Cc1ccccc1)NC(=O)CNC(=O)[C@H](N)[C@H](C)O)C(=O)N[C@@H](C(=O)N[C@H](CC(N)=O)C(=O)N[C@@H](C(N)=O)C(C)C)C(C)C [P7, TGFLVNV] (H-[dT]G[dF][dL][dV][dN][dV]-NH2)",
>256 µg/mL,>256 µg/mL,128 µg/mL,>256 µg/mL,128 µg/mL,>256 µg/mL,>256 µg/mL,"CC(C)C[C@@H](NC(=O)[C@H](N)C(C)C)C(=O)N[C@@H](C(=O)N[C@H](CCCNC(=N)N)C(=O)N[C@H](CS)C(=O)N[C@H](CS)C(=O)NCC(N)=O)[C@H](C)O [P6, VLTRCCG] (H-[dV][dL][dT][dR][dC][dC]G-NH2)",
>256 µg/mL,64 µg/mL,32 µg/mL,>256 µg/mL,32 µg/mL,>256 µg/mL,32 µg/mL,"CC(C)C[C@@H](NC(=O)[C@@H](CC(N)=O)NC(=O)[C@@H](CO)NC(=O)CNC(=O)[C@H](N)C(C)C)C(=O)N[C@H](CCCNC(=N)N)C(=O)N[C@H](CC(C)C)C(=O)N[C@H](CC(C)C)C(=O)N[C@H](Cc1c[nH]cn1)C(=O)N[C@H](CCC(N)=O)C(=O)N[C@H](Cc1c[nH]c2ccccc12)C(=O)N[C@H](CCCCN)C(N)=O [P3, VGSNLRLLHQWK] (H-[dV]G[dS][dN][dL][dR][dL][dL][dH][dQ][dW][dK]-NH2)",
